Assay results from US20250345492A1, “AN ANTIBACTERIAL POLYPEPTIDE COMPOUND, A MEDICAL DEVICE, HYDROGEL AND USE THEREOF” (priority 2020, published 2025).
Values after ≈ are worked out from the molar mass of the structure shown. Peptide text beside a SMILES is read from it.

Tests used:
[1] = tested on: mouse mononuclear macrophage RAW264.7; assay: Cytotoxicity, MTT colorimetry; format: cell-based; details: RAW 264.7 cell line, MTT, 24 hours
Procedure: (§1) For cytotoxicity determination, the MTT colorimetry was used to evaluate the effects of the compounds on the proliferation of human cervical cancer cell Hela, human embryonic renal epithelial cell HEK293 and mouse mononuclear macrophage RAW264.7.
(§2) Taking compounds 2, 8, 9, 13 and 15 of the present invention as examples, the cytotoxicity of the antibacterial polypeptide compounds was analyzed. Three cell lines were employed for the present invention, namely human cervical cancer cell Hela, human embryonic renal epithelial cell HEK293 and mouse mononuclear macrophage RAW264.7. Hela cells were cultured in RPMI 1640 medium with 10% newborn calf serum, HEK293 cells and RAW264.7 cells were cultured in DMEM medium with 10% fetal bovine serum. Simply, cells (1×10^4 cells/well) were inoculated to a 96-well plate and incubated in an incubator set to 5% CO2 at 37° C. After 24 hours, compounds of different concentrations were added and incubated in the 5% CO2 incubator. After 24 hours, 20 μL of MTT solution with a concentration of 5 mg/mL was added to each well and incubated for 4 hours. After that, the medium was removed with a pipet, and 150 μL of DMSO added to dissolve the purple-blue formazan crystals. The solution was shaken in an oscillator for 5 mins before detecting the absorbance value at 570 nm using the ELISA reader, and then the survival rate was calculated with the formula: (OD dosing group/OD control group)×100% (n=3).

[2] = tested on: human cervical cancer cell Hela; assay: Cytotoxicity, MTT colorimetry; format: cell-based; details: Hela cell line, MTT, 24 hours
Procedure: as §1, §2

[3] = tested on: human embryonic renal epithelial cell HEK293; assay: Cytotoxicity, MTT colorimetry; format: cell-based; details: HEK293 cell line, MTT, 24 hours
Procedure: as §1, §2

[4] = tested on: P-1c, clinical isolated drug-resistant strain PA; details: strain P-1c (PA)
Excerpt: (§3) With respect to the determination of antibacterial activity and antifungal activity of the antibacterial polypeptide compounds, the bacterial strains employed included: E. coli (ATCC 25922), E. coli (ATCC 43837), Pseudomonas aeruginosa (ATCC 27853), Klebsiella pneumoniae (ATCC 700603), Cronobacter sakazakii (ATCC 29544), Staphylococcus aureus (ATCC 29213), Bacillus subtilis (ATCC 23857) and Staphylococcus epidermidis (ATCC 12228); and the fungal strains employed included Candida albicans (ATCC 14053), Candida glabrata (ATCC 2001), Candida parapsilosis (ATCC 22019), Candida tropicalis (ATCC 750) and Candida krusei (ATCC 6258), all of which were standard strains from American Type Culture Collection. In addition, drug-resistant strains S-1a, S-2a, S-3a, S-4a, E-1b, E-2b, E-3b, E-4b, E-5b, P-1c, P-2c, P-3c, P-4c, P-5c, and clinically isolated fungal strains Candida glabrata 2-1 and Candida albicans 14-1, 14-2 and 14-3 were employed, all which were clinically isolated.
(§4) Simply, a proper amount of the cryopreserved bacterium or fungus was added to fresh MH/SD medium, and cultured on a shaker overnight at 180 rpm at 37° C. The obtained cells were seeded again and cultured on a shaker for 4-5 hours to obtain cells in logarithmic phase. The resulting cells were added to a 96-well plate (1×10^5 CFU/ml, 100 μL/well), and then 100 μL of polypeptide with different concentrations (1-256 μM) twice the final concentrations was added to corresponding well according to the 2-fold serial dilution method. The fresh medium was used as a negative control, which was prepared in triplicate for each concentration. After dosing, the 96-well plate was placed in an incubator at constant 37° C. and humidity for 12 hours to observe the results. According to naked eye observations, the concentration of the compound in the first transparent well following the turbid wells was recorded as the MIC of the compound, namely, the MIC value of the compound to the bacterium or fungus.

[5] = tested on: S-3a, clinical isolated drug-resistant strain MRSA; details: strain S-3a (MRSA)
Excerpt: as §3, §4

C. albicans ATCC14053 = details: fungus
Excerpt: as §3, §4

[6] = tested on: P-5c, clinical isolated drug-resistant strain PA; details: strain P-5c (PA)
Excerpt: as §3, §4

[7] = tested on: Staphylococcus aureus (ATCC 29213); details: standard strain
Excerpt: as §3, §4

[8] = tested on: S-1a, clinical isolated drug-resistant strain MRSA; details: strain S-1a (MRSA)
Excerpt: as §3, §4

[9] = tested on: P-4c, clinical isolated drug-resistant strain PA; details: strain P-4c (PA)
Excerpt: as §3, §4

[10] = tested on: P-3c, clinical isolated drug-resistant strain PA; details: strain P-3c (PA)
Excerpt: as §3, §4

C. parapsilosis ATCC2001 = details: fungus
Excerpt: as §3, §4

[11] = tested on: E-2b, clinical isolated drug-resistant strain ESBL; details: strain E-2b (ESBL)
Excerpt: as §3, §4

[12] = tested on: E-1b, clinical isolated drug-resistant strain ESBL; details: strain E-1b (ESBL)
Excerpt: as §3, §4

C. tropicalis ATCC750 = details: fungus
Excerpt: as §3, §4

C. glabrata ATCC22019 = details: fungus
Excerpt: as §3, §4

[13] = tested on: E-4b, clinical isolated drug-resistant strain ESBL; details: strain E-4b (ESBL)
Excerpt: as §3, §4

[14] = tested on: S-4a, clinical isolated drug-resistant strain MRSA; details: strain S-4a (MRSA)
Excerpt: as §3, §4

[15] = tested on: Pseudomonas aeruginosa (ATCC 27853); details: standard strain
Excerpt: as §3, §4

[16] = tested on: P-2c, clinical isolated drug-resistant strain PA; details: strain P-2c (PA)
Excerpt: as §3, §4

[17] = tested on: E-3b, clinical isolated drug-resistant strain ESBL; details: strain E-3b (ESBL)
Excerpt: as §3, §4

[18] = tested on: E-5b, clinical isolated drug-resistant strain ESBL; details: strain E-5b (ESBL)
Excerpt: as §3, §4

[19] = tested on: Bacillus subtilis (ATCC 23857); details: standard strain
Excerpt: as §3, §4

[20] = tested on: Cronobacter sakazakii (ATCC 29544); details: standard strain
Excerpt: as §3, §4

C. krusei ATCC6258 = details: fungus
Excerpt: as §3, §4

[21] = tested on: Staphylococcus epidermidis (ATCC 12228); details: standard strain
Excerpt: as §3, §4

[22] = tested on: S-2a, clinical isolated drug-resistant strain MRSA; details: strain S-2a (MRSA)
Excerpt: as §3, §4

E. coli (ATCC 25922) = details: standard strain
Excerpt: as §3, §4

Acute toxicity in mice = assay: Acute toxicity in mice; design: species or system Kunming mice; details: mouse, in vivo, ip, intraperitoneal injection, Karber method
Procedure: Acute toxicity of the compounds was determined by measuring the acute toxicity in mice with the compounds.
Taking compounds 2, 8, 9, 13 and 15 of the present invention as examples, […]. The mice used in this test were Kunming mice, which were placed in constant-temperature environment (22±1° C.) and could freely obtain water and food. Simply, 132 healthy Kunming mice were randomly divided into 11 groups, with 12 mice in each group (half male and half female), wherein, 5 groups were intraperitoneally injected with 0.2 ml of the compounds of different doses (100-1000 mg/kg), and the control group was intraperitoneally injected with normal saline. In this experiment, melittin was used as a reference control, and the other 5 groups were intraperitoneally injected with melittin of different doses (10-32 mg/kg). The state of mice was observed and recorded after 2 hours of administration, and then observed twice a day for 14 days, and the survival rates of the mice were recorded.

CC(C)C[C@H](NC(=O)[C@H](CCCCN)NC(=O)[C@H](CC(C)C)NC(=O)[C@H](CO)NC(=O)[C@H](CC(C)C)NC(=O)[C@H](CCCN)NC(=O)[C@H](Cc1ccccc1)NC(=O)[C@@H]1CCCN1)C(N)=O [Compound 2, Pro-Phe-Orn-Leu-Ser-Leu-Lys-Leu-NH2] (HELM PEPTIDE1{P.F.[Orn].L.S.L.K.L.[am]}$$$$V2.0)
effect on proliferation (inhibitory activity) [1]: no inhibitory activity | effect on proliferation (inhibitory activity) [2]: no inhibitory activity | effect on proliferation (inhibitory activity) [3]: no inhibitory activity | MIC [4]: 8 µM (≈ 7.44 µg/mL) | MIC [5]: 64 µM (≈ 59.5 µg/mL) | MIC C. albicans ATCC14053 (C. albicans ATCC14053): 32 µM (≈ 29.8 µg/mL) | MIC [6]: 8 µM (≈ 7.44 µg/mL) | MIC S. aureus ATCC29213 [7]: 64 µM (≈ 59.5 µg/mL) | MIC [8]: 64 µM (≈ 59.5 µg/mL) | MIC [9]: 8 µM (≈ 7.44 µg/mL) | MIC [10]: 8 µM (≈ 7.44 µg/mL) | MIC C. parapsilosis ATCC2001 (C. parapsilosis ATCC2001): 16 µM (≈ 14.9 µg/mL) | MIC [11]: 16 µM (≈ 14.9 µg/mL) | MIC [12]: 16 µM (≈ 14.9 µg/mL) | MIC C. tropicalis ATCC750 (C. tropicalis ATCC750): 32 µM (≈ 29.8 µg/mL) | MIC C. glabrata ATCC22019 (C. glabrata ATCC22019): 32 µM (≈ 29.8 µg/mL) | MIC [13]: 8 µM (≈ 7.44 µg/mL) | MIC [14]: 64 µM (≈ 59.5 µg/mL) | MIC P. aerugmosa ATCC27853 [15]: 8 µM (≈ 7.44 µg/mL) | MIC [16]: 8 µM (≈ 7.44 µg/mL) | MIC [17]: 16 µM (≈ 14.9 µg/mL) | MIC [18]: 8 µM (≈ 7.44 µg/mL) | MIC B. subtilis ATCC23857 [19]: 16 µM (≈ 14.9 µg/mL) | MIC C. sakazakii ATCC29544 [20]: 32 µM (≈ 29.8 µg/mL) | MIC C. krusei ATCC6258 (C. krusei ATCC6258): 32 µM (≈ 29.8 µg/mL) | MIC S. epidermidis ATCC12228 [21]: 16 µM (≈ 14.9 µg/mL) | MIC [22]: 64 µM (≈ 59.5 µg/mL) | MIC C. coli ATCC25922 (E. coli (ATCC 25922)): 16 µM (≈ 14.9 µg/mL) | LD50 (Acute toxicity in mice): > 1000 mg/kg

CC[C@H](C)[C@H](NC(=O)CN)C(=O)NCC(=O)N[C@@H](C)C(=O)N[C@H](C(=O)N[C@@H](CC(C)C)C(=O)N[C@@H](CCCCN)C(=O)N[C@H](C(=O)N[C@@H](CC(C)C)C(=O)N[C@H](C(=O)N[C@H](C(=O)NCC(=O)N[C@@H](CC(C)C)C(=O)N1CCC[C@H]1C(=O)N[C@@H](C)C(=O)N[C@@H](CC(C)C)C(=O)N[C@H](C(=O)N[C@@H](CO)C(=O)N[C@@H](Cc1c[nH]c2ccccc12)C(=O)N[C@H](C(=O)N[C@@H](CCCCN)C(=O)N[C@@H](CCCNC(=N)N)C(=O)N[C@@H](CCCCN)C(=O)N[C@@H](CCCNC(=N)N)C(=O)N[C@@H](CCC(N)=O)C(=O)N[C@@H](CCC(N)=O)C(N)=O)[C@@H](C)CC)[C@@H](C)CC)[C@@H](C)O)[C@@H](C)O)C(C)C)C(C)C [melittin magainin, melittin, reference compound]
LD50 at 14 days (Acute toxicity in mice; both sexes, Kunming): 20 mg/kg
